{
  "source": "patent US5378846A",
  "about": "“1,2,3,4-tetrahydropyrrolo-[1,2-a]-pyrazine derivatives” (Russian-American Institute For New Drug Development, priority 1993, dated 1995)",
  "system": "rat behavior in Vogel conflict test",
  "assay": "Vogel conflict test (anxiolytic activity, punished responses in water-deprived rats)",
  "assay_type": "in vivo, outbred male albino rats",
  "text": "Compounds according to the present invention were checked for their anxiolytic activity. Behaviour suppressed by punishment is a very reliable indicator of the anxiolytic activity of drugs. A variant of the conflict situation test was used to reveal anxiety in water-deprived rats whose licking was suppressed by shock (see Vogel et al., Phychopharmacologia, 21, 1-7 (1971); J. E. Barrett in Animal Models in Psychopharmacology, Advances in Pharmacological Sciences, 1991; and Birkhauser Verlag, Basel, p. 37.52, Molodavkin et al., Exper. Clin. Pharmacol., 56, (1993), which are incorporated herein by reference).\nThe experiments were carried out using outbred male albino rats (180-220 g). This experiment involved previous training of water-deprived rats to drink water from a trough. Next day electrical stimulation was given delivering 0.5 mA electric shocks through the trough and metal grid floor of the experimental chamber. A conflict situation was created by clashing motivations (survival and self defense). The degree of anxiolytic activity was estimated by the measurement of the amount of punished licks for 10 min. Each compound was administered intraperitoneally 45 min. before the conflict test.",
  "note": "“Also recorded” adds a separate entry of the source.",
  "data": [
    {"smiles": "O=C(O)CCC(=O)O.c1cc2n(c1)CCNC2", "note": "[Compound 1, 1,2,3,4-tetrahydropyrrolo-[1,2-a]-pyrazine hydrosuccinate]", "values": [
      {"measurement": "Anxiolytic effectiveness after chronic administration, in words", "setting": "5 mg/kg i.p. once daily for 40 days", "value": "anxiolytic effectiveness of Compound 1 is preserved after its chronic administration"},
      {"measurement": "The number of punished responses", "setting": "rat, 2.0 mg/kg i.p., 45 min before test, Table 1", "value": "43.52 ± 14.8"},
      {"measurement": "The number of punished responses", "setting": "rat, acute administration, 5 mg/kg, Table 3", "value": "49.52 ± 15.91"},
      {"measurement": "The number of punished responses", "setting": "rat, chronic administration, 5 mg/kg i.p. once daily for 40 days, Table 3", "value": "85.8 ± 6.7"},
      {"measurement": "The number of punished responses", "setting": "rat, i.p., dose 0.5 mg/kg, Table 2", "value": "49.88 ± 19.27"},
      {"measurement": "The number of punished responses", "setting": "rat, i.p., dose 1.0 mg/kg, Table 2", "value": "41.29 ± 16.71"},
      {"measurement": "The number of punished responses", "setting": "rat, i.p., dose 2.0 mg/kg, Table 2", "value": "43.52 ± 14.8"},
      {"measurement": "The number of punished responses", "setting": "rat, i.p., dose 5.0 mg/kg, Table 2", "value": "29.88 ± 13.13"},
      {"measurement": "The number of punished responses", "setting": "rat, i.p., dose 10.0 mg/kg, Table 2", "value": "30.88 ± 10.93"},
      {"measurement": "Anxiolytic effect in Vogel conflict test, in words", "setting": "rat, i.p., Compound 1 vs diazepam: 0.5-2 mg/kg vs 1 and 2 mg/kg", "value": "increase the amount of punished responses in a Vogel conflict test after acute and chronic administration; also recorded: displayed more anxiolytic effect than diazepam"}
    ]}
  ]
}
